In patent US20250099420A1, “SMALL MOLECULE MODULATORS OF GPR139 COMPLEX” (University of Florida Research Foundation, Incorporated, priority 2022, published 2025):
Like-named read-outs stand apart in the source and are kept apart here.

Tests used:
[1] = tested on: parental HEK cells; assay: HEK parental Agonist Counterscreen Assay (non-transfected cells); type: cell-based; conditions: for Averaged Max % Response (±St. Dev.): activity relative to known control
Source text: The high control for the agonist counterscreen was Forskolin not acetylcholine.

[2] = molecular target: T1, GPR139 (Homo sapiens, UniProt Q6DWJ6); assay: GPR139 Agonist titration / agonist counterscreen assay (calcium detection, HEK-GPR139 cells); type: cell-based; set-up: expressed in transfected cells; host or cells: HEK Aequorin cells, Maxcyte transient transfection; conditions: GPR139 Agonist Activity; for EC50: read-out: EC50; for Averaged Max % Response (±St. Dev.): activity relative to known control
T1 sequence (Q6DWJ6 1-353): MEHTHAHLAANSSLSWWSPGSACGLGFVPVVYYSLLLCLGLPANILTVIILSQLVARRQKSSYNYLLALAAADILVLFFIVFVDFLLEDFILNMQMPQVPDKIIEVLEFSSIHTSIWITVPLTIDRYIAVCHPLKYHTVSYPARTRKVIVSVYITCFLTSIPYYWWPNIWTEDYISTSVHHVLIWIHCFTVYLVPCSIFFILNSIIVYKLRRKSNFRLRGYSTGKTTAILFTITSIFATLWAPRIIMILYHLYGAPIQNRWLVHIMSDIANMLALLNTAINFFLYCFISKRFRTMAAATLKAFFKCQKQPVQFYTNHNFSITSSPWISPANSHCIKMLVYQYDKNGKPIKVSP
Protocol: GPR activity was assessed using a calcium detection assay. […] Negative control samples were treated with DMSO. […] Intracellular calcium was measured using Calcium 5.

[3] = HEK Agonist Activity section of Table 4 (parental HEK counterscreen)
[4] = Homo sapiens, HEK293, HEK Agonist Activity, parental non-transfected HEK cells
[5] = values printed in E-notation without unit
[6] = Homo sapiens, HEK293, HEK Agonist Activity section of Table 4 (parental HEK counterscreen)

Row | SMILES | Lipophilic Efficiency (logD) ([1]; HEK Agonist Activity section) | Lipophilic Efficiency (logP) ([1]; HEK Agonist Activity section) | EC50 [1, 3] | Averaged Max % Response (±St. Dev.) ([1]; HEK Agonist Activity section) | Efficiency Ligand [2] | Hill Slope [2] | Lipophilic Efficiency (logD) [2] | Lipophilic Efficiency (logP) [2] | EC50 ([2]; HEK-GPR139 cells) | Averaged Max % Response (±St. Dev.) [2] | Lipophilic Efficiency (logD) ([1]; HEK Agonist Activity) | Lipophilic Efficiency (logP) ([1]; HEK Agonist Activity) | Averaged Max % Response (±St. Dev.) ([1]; HEK Agonist Activity) | EC50 [1, 4] | Lipophilic Efficiency (logD) ([2]; based on logD) | Lipophilic Efficiency (logP) ([2]; based on logP) | Hill Slope ([2]; fitted dose-response curve) | Efficiency Ligand ([2]; ligand efficiency) | EC50 [2, 5] | EC50 [1, 6]
1 | O=C(CSCc1cccc2ccccc12)Nc1c[nH]c(=O)[nH]c1=O [SR-01000296110] | 3.56 | 3.55 | > 14100 nM | 3.41 ± 3.54% | 0.35 | 1.48 | 4.77 | 4.76 | 857 nM | 96.78 ± 9.37% | – | – | – | – | – | – | – | – | – | –
2 | Cc1c(Br)c([N+](=O)[O-])nn1CC(=O)NCCc1ccc(Cl)cc1 [SR-01000298170] | – | – | – | – | – | – | – | – | – | 119.00 ± 5.31% | 1.44 | 1.44 | 10.66 ± 2.50% | > 14100 nM | 4.08 | 4.08 | 0.27 | 0.46 | 31.6 nM | –
3 | Cc1ccc(NC(=O)NCCCc2ccccc2)cc1 [SR-01000299370] | 0.78 | 0.78 | – | −5.05 ± 8.64% | 0.38 | 0.74 | 1.36 | 1.36 | 3700 nM | 68.10 ± 8.73% | – | – | – | – | – | – | – | – | – | > 14100 nM
4 | C=C(CCC)c1ccc(CCC2=NNC(c3ccccc3)N2C)cc1 (centres unmarked) [SR-01000299610] | 2.82 | 2.82 | – | −12.89 ± 6.99% | 0.33 | 0.79 | 3.88 | 3.88 | – | 71.34 ± 19.37% | – | – | – | – | – | – | – | – | – | > 14100 nM
5 | O=C(Cn1ccc([N+](=O)[O-])n1)NCCc1ccc(Cl)cc1 [SR-01000299915] | – | – | – | – | – | – | – | – | – | 99.72 ± 18.10% | 2.40 | 2.40 | 2.39 ± 2.18% | > 14100 nM | 5.86 | 5.86 | 1.13 | 0.55 | 5 nM | –
6 | Cc1cc(C)c2c(CC(=O)NNC(=O)COc3ccccc3)coc2c1 [SR-01000301649] | 1.94 | 1.93 | > 14100 nM | 14.38 ± 10.96% | – | – | – | – | – | 93.20 ± 6.78% | – | – | – | – | 3.92 | 3.92 | 0.91 | 0.37 | 145 nM | –
7 | Cc1ccc(NC(=O)NNC(=O)COc2ccc(Cl)cc2)c(C)c1 [SR-01000309617] | 1.74 | 1.67 | – | −3.26 ± 4.40% | – | – | – | – | – | 94.36 ± 3.49% | – | – | – | – | 3.88 | 3.82 | 0.63 | 0.41 | – | > 14400 nM
8 | CC1=NNC(=O)C1CC(=O)N/N=C/c1c(Cl)cccc1Cl (centres unmarked) [SR-01000310664] | 3.00 | 3.00 | > 14100 nM | 28.78 ± 5.42% | 0.41 | 0.70 | 4.32 | 4.32 | 672 nM | 89.42 ± 11.78% | – | – | – | – | – | – | – | – | – | –
9 | NC1=NC(=O)/C(=C\c2ccc(Cl)cc2Cl)S1 [SR-01000310833] | 1.78 | 1.78 | > 14100 nM | 13.95 ± 0.93% | 0.56 | 0.71 | 3.32 | 3.32 | 407 nM | 80.08 ± 5.83% | – | – | – | – | – | – | – | – | – | –
10 | COc1ccc(CC(=O)NNC(=O)C(C)Oc2ccc(Cl)cc2Cl)cc1OC (centres unmarked) [SR-01000312779] | 1.69 | 1.66 | – | 13.34 ± 1.65% | 0.30 | 1.91 | 2.77 | 2.74 | 1200 nM | 81.17 ± 17.61% | – | – | – | – | – | – | – | – | – | > 14100 nM
11 | Cc1ccc(CCC(=O)NNC(=O)CCc2ccccc2)c(Br)c1 [SR-01000313193] | 1.40 | 1.39 | – | 8.61 ± 6.03% | 0.36 | 1.19 | 2.69 | 2.69 | 719 nM | 90.41 ± 15.26% | – | – | – | – | – | – | – | – | – | > 14100 nM
12 | O=C(NCCCn1ccnc1)c1cc2nc3c(c(C(F)(F)F)n2n1)CCc1ccccc1-3 [SR-01000313440] | 1.45 | 1.38 | – | 0.31 ± 4.15% | 0.28 | 1.29 | 3.07 | 3.01 | 332 nM | 84.05 ± 13.31% | – | – | – | – | – | – | – | – | – | > 14100 nM
13 | O=C(CCc1ccccc1)NNC(=O)C12CC3CC(CC(C3)C1)C2 [SR-01000314474] | 1.59 | 1.59 | – | −0.07 ± 5.01% | 0.37 | 2.04 | 3.13 | 3.13 | 401 nM | 90.74 ± 17.54% | – | – | – | – | – | – | – | – | – | > 14100 nM
14 | O=C(COc1ccc2ccccc2c1)NNC(=O)Cc1cccc2ccccc12 [SR-01000316766] | 1.14 | 1.14 | – | −0.94 ± 3.21% | – | – | – | – | – | 101.45 ± 17.20% | – | – | – | – | 3.15 | 3.15 | 1.07 | 0.33 | 138 nM | > 14100 nM
15 | CCC(=O)NNC(=O)C(C)Oc1ccc(Cl)cc1Cl (centres unmarked) [SR-01000316982] | 2.52 | 2.48 | – | 2.44 ± 4.96% | 0.46 | 1.19 | 3.90 | 3.86 | 580 nM | 86.53 ± 11.45% | – | – | – | – | – | – | – | – | – | > 14100 nM
16 | Cc1cc(Cl)ccc1OCC(=O)NNC(=O)C1CC1c1ccccc1 (centres unmarked) [SR-01000317486] | – | – | – | – | – | – | – | – | – | 114.27 ± 15.21% | 1.64 | 1.64 | 3.86 ± 3.87% | > 14100 nM | 4.70 | 4.70 | 1.01 | 0.44 | 12.3 nM | –
